In PMC3454389, “Mining the Sinorhizobium meliloti Transportome to Develop FRET Biosensors for Sugars, Dicarboxylates and Cyclic Polyols” (PLoS ONE, 2012):

Experiments:
[1] = biological target: T1, RL2376-CY (Rhizobium leguminosarum, UniProt Q1MGQ3); experiment: FRET biosensor RL2376-CY, in vitro ligand titration; assay type: binding; conditions: pCYS (pLMB394), Tris-HCl pH 8.5, read-out: Kd
T1 sequence (Q1MGQ3 24-320): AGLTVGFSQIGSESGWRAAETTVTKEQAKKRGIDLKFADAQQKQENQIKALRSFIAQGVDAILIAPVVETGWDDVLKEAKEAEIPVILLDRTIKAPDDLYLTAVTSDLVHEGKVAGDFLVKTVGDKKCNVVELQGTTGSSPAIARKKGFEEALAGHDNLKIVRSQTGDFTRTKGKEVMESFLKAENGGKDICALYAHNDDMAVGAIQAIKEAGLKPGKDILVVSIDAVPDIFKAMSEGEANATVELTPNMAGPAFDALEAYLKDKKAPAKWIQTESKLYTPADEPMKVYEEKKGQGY
Experimental: (§1) Ligand-induced FRET ratio changes of purified FRET biosensor were screened using a LS55 luminescence spectrometer (PerkinElmer Instruments). Excitation (ex.) was at (λ/slit width) 433/10 nm (CFP) or 549/10 nm (OFP). Emission (em.) was measured at 475/10 nm (CFP), 527/10 nm (YFP), 573/10 nm (OFP) and 644/10 nm (RFP). To confirm that Aphrodite and mKate2 were properly folded their fluorescence was individually tested by direct excitation at 510/6 nm and 588/10 nm respectively.
(§2) Affinity constants (Kd) of FRET biosensors with specific ligands were established using a monochromator microplate reader (Safire, Tecan, Switzerland; CFP ex.: (λ\bandwidth) 433/12 nm, em.: 475/12 nm; YFP em.: 527/12 nm. OFP ex.: 533/12 nm, em.: 563/12 nm; RFP em.: 615/12 nm). Proteins were diluted to give relative fluorescence units (RFU) in the detection range of 30,000 to 50,000 RFU at a gain of 90 to 100, and then were added to a dilution series (10^−3 to 10^−11 M) of ligand in Tris-HCl (pH 8.5, 50 mM). The change in relative emission intensities at 527/477 nm (YFP/CFP) or 615/563 nm (RFP/OFP) was used to determine Kd by fitting the titration curves to a single-site-binding isotherm: [drawing 1] with: R, ratio; Rapo, ratio without ligand; Rsat, ratio at saturation of ligand; n, number of equal binding sites; [L], ligand concentration. Non-linear regression was used to fit the curves using SigmaPlot 11 (Systat Software Inc.) (Hill equation, 4 Parameters, b = 1). All measurements were done in quadruplicate.

[2] = test system: RL2376-RO; experiment: RL2376-RO, FRET ratio change on ligand; assay type: binding, Rhizobium leguminosarum
Experimental: as §1
as §2, with “Non-linear regression was used to fit the curves using SigmaPlot 11 (Systat Software Inc.) (Hill equation, 4 Parameters, b = 1). All measurements were done in quadruplicate.” left out

[3] = biological target: YtfQ; parameters: method as in PMID 19744923; conditions: YtfQ from E. coli; cited from earlier work
[4] = test system: genes encoding the ABC-transporter (RL2376-9); conditions: RL2376, Table 1; cited from earlier work

For `O=C[C@H](O)[C@@H](O)[C@@H](O)[C@H](O)CO` [D-galactose], which Kd [1] is on record?
The Kd was 5.3 µM.

And the “change in FRET ratio on binding ligand” value [2]?
Its value is “no change in FRET ratio”.

And the Kd [3]?
The Kd was 1.7 ± 0.3 µM.

And the “Inducer of gene expression (fold change)” value [4]?
Its value is “D-galactose (2.6) fold”.
